PubChem BioAssay (NCI)
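All cell lines were grown in 96-well plates and treated with compound for 48 hours. GI50 = concentration required for 50% inhibition of growth. TGI: total growth inhibition.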

Assays:
Assay in all cases: NCI-60 cell line screen, 48 h
U251 CNS = tested on: U251 CNS
EKVX NSCLC = tested on: EKVX NSCLC
SF-295 CNS = tested on: SF-295 CNS
SK-MEL-2 melanoma = tested on: SK-MEL-2 melanoma
NCI-H460 lung = tested on: NCI-H460 lung
SR leukemia = tested on: SR leukemia
SW-620 colon = tested on: SW-620 colon
786-0 renal = tested on: 786-0 renal
HCC-2998 colon = tested on: HCC-2998 colon
MDA-MB-231 breast = tested on: MDA-MB-231 breast
NCI-H522 lung = tested on: NCI-H522 lung
RXF 393 renal = tested on: RXF 393 renal
HCT-116 colon = tested on: HCT-116 colon
PC-3 prostate = tested on: PC-3 prostate
NCI-H23 lung = tested on: NCI-H23 lung
BT-549 breast = tested on: BT-549 breast
UO-31 renal = tested on: UO-31 renal
SNB-75 CNS = tested on: SNB-75 CNS
HOP-62 NSCLC = tested on: HOP-62 NSCLC
HS 578T breast = tested on: HS 578T breast
OVCAR-8 ovarian = tested on: OVCAR-8 ovarian
HOP-92 NSCLC = tested on: HOP-92 NSCLC
UACC-62 melanoma = tested on: UACC-62 melanoma
A549 NSCLC = tested on: A549 NSCLC
KM12 colon = tested on: KM12 colon
SNB-19 CNS = tested on: SNB-19 CNS
K-562 leukemia = tested on: K-562 leukemia
CAKI-1 renal = tested on: CAKI-1 renal
CCRF-CEM leukemia = tested on: CCRF-CEM leukemia
MCF7 breast = tested on: MCF7 breast
SK-MEL-28 melanoma = tested on: SK-MEL-28 melanoma
TK-10 renal = tested on: TK-10 renal
M14 melanoma = tested on: M14 melanoma
RPMI-8226 leukemia = tested on: RPMI-8226 leukemia
UACC-257 melanoma = tested on: UACC-257 melanoma
MDA-MB-435 = tested on: MDA-MB-435
SF-268 CNS = tested on: SF-268 CNS
NCI-H226 lung = tested on: NCI-H226 lung
OVCAR-4 ovarian = tested on: OVCAR-4 ovarian
HL-60(TB) leukemia = tested on: HL-60(TB) leukemia
MALME-3M melanoma = tested on: MALME-3M melanoma
SN12C renal = tested on: SN12C renal
OVCAR-5 ovarian = tested on: OVCAR-5 ovarian
HT29 colon = tested on: HT29 colon
SF-539 CNS = tested on: SF-539 CNS
ACHN renal = tested on: ACHN renal
MOLT-4 leukemia = tested on: MOLT-4 leukemia
IGROV1 ovarian = tested on: IGROV1 ovarian
T-47D breast = tested on: T-47D breast
LOX IMVI melanoma = tested on: LOX IMVI melanoma
SK-MEL-5 melanoma = tested on: SK-MEL-5 melanoma
NCI/ADR-RES ovarian = tested on: NCI/ADR-RES ovarian
DU-145 prostate = tested on: DU-145 prostate

C(=N\Nc1ncc(-c2cc3cc4c(cc3o2)OCO4)s1)/c1ccco1
GI50 (U251 CNS): 2900 nM | TGI (U251 CNS): 14.5 µM | GI50 (EKVX NSCLC): 2250 nM | TGI (EKVX NSCLC): 10.9 µM | GI50 (SF-295 CNS): 2780 nM | TGI (SF-295 CNS): 11.5 µM | GI50 (SK-MEL-2 melanoma): 3.11 µM | TGI (SK-MEL-2 melanoma): 11.3 µM | GI50 (NCI-H460 lung): 2590 nM | TGI (NCI-H460 lung): 10.3 µM | GI50 (SR leukemia): 1290 nM | TGI (SR leukemia): 25.3 µM | GI50 (SW-620 colon): 681 nM | TGI (SW-620 colon): 2480 nM | GI50 (786-0 renal): 1970 nM | TGI (786-0 renal): 4.94 µM | GI50 (HCC-2998 colon): 3.52 µM | TGI (HCC-2998 colon): 12.9 µM | GI50 (MDA-MB-231 breast): 1640 nM | TGI (MDA-MB-231 breast): 3.83 µM | GI50 (NCI-H522 lung): 625 nM | TGI (NCI-H522 lung): 2970 nM | GI50 (RXF 393 renal): 1800 nM | TGI (RXF 393 renal): 5.13 µM | GI50 (HCT-116 colon): 1570 nM | TGI (HCT-116 colon): 4.03 µM | GI50 (PC-3 prostate): 1790 nM | TGI (PC-3 prostate): 12.4 µM | GI50 (NCI-H23 lung): 1510 nM | TGI (NCI-H23 lung): 4.22 µM | GI50 (BT-549 breast): 3.43 µM | TGI (BT-549 breast): 15.2 µM | GI50 (UO-31 renal): 590 nM | TGI (UO-31 renal): 3.68 µM | GI50 (SNB-75 CNS): 1860 nM | TGI (SNB-75 CNS): 11.4 µM | GI50 (HOP-62 NSCLC): 3.04 µM | TGI (HOP-62 NSCLC): 12.6 µM | GI50 (HS 578T breast): 2740 nM | TGI (HS 578T breast): 22.2 µM | GI50 (OVCAR-8 ovarian): 2800 nM | TGI (OVCAR-8 ovarian): > 100 µM | GI50 (HOP-92 NSCLC): 1940 nM | TGI (HOP-92 NSCLC): 8.98 µM | GI50 (UACC-62 melanoma): 3.81 µM | TGI (UACC-62 melanoma): 14.5 µM | GI50 (A549 NSCLC): 1790 nM | TGI (A549 NSCLC): 6.87 µM | GI50 (KM12 colon): 1850 nM | TGI (KM12 colon): 5.14 µM | GI50 (SNB-19 CNS): 4.73 µM | TGI (SNB-19 CNS): 23.1 µM | GI50 (K-562 leukemia): 2100 nM | TGI (K-562 leukemia): > 100 µM | GI50 (CAKI-1 renal): 854 nM | TGI (CAKI-1 renal): 6.69 µM | GI50 (CCRF-CEM leukemia): 551 nM | TGI (CCRF-CEM leukemia): 16.2 µM | GI50 (MCF7 breast): 683 nM | TGI (MCF7 breast): 7.18 µM | GI50 (SK-MEL-28 melanoma): 3.42 µM | TGI (SK-MEL-28 melanoma): 12.3 µM | GI50 (TK-10 renal): 3.38 µM | TGI (TK-10 renal): 24.7 µM | GI50 (M14 melanoma): 2900 nM | TGI (M14 melanoma): 11.6 µM | GI50 (RPMI-8226 leukemia): 3.08 µM | TGI (RPMI-8226 leukemia): 13.3 µM | GI50 (UACC-257 melanoma): 3.83 µM | TGI (UACC-257 melanoma): 23.2 µM | GI50 (MDA-MB-435): 2860 nM | TGI (MDA-MB-435): 10.2 µM | GI50 (SF-268 CNS): 2670 nM | TGI (SF-268 CNS): 23.1 µM | GI50 (NCI-H226 lung): 3.67 µM | TGI (NCI-H226 lung): 18.9 µM | GI50 (OVCAR-4 ovarian): 1270 nM | TGI (OVCAR-4 ovarian): 12.2 µM | GI50 (HL-60(TB) leukemia): 2700 nM | TGI (HL-60(TB) leukemia): 7.59 µM | GI50 (MALME-3M melanoma): 1920 nM | TGI (MALME-3M melanoma): 6.18 µM | GI50 (SN12C renal): 2970 nM | TGI (SN12C renal): 12.7 µM | GI50 (OVCAR-5 ovarian): 2710 nM | TGI (OVCAR-5 ovarian): 8.67 µM | GI50 (HT29 colon): 2990 nM | TGI (HT29 colon): 7.62 µM | GI50 (SF-539 CNS): 1580 nM | TGI (SF-539 CNS): 3.96 µM | GI50 (ACHN renal): 1850 nM | TGI (ACHN renal): 11.3 µM | GI50 (MOLT-4 leukemia): 946 nM | TGI (MOLT-4 leukemia): 14.5 µM | GI50 (IGROV1 ovarian): 2600 nM | TGI (IGROV1 ovarian): 8.09 µM | GI50 (T-47D breast): 1270 nM | TGI (T-47D breast): 9.74 µM | GI50 (LOX IMVI melanoma): 1350 nM | TGI (LOX IMVI melanoma): 2760 nM | GI50 (SK-MEL-5 melanoma): 2070 nM | TGI (SK-MEL-5 melanoma): 4.6 µM | GI50 (NCI/ADR-RES ovarian): 2210 nM | TGI (NCI/ADR-RES ovarian): > 100 µM | GI50 (DU-145 prostate): 2020 nM | TGI (DU-145 prostate): 5.49 µM
